Here are results for five compounds from patent publication US6107345A, “Benzocyclobutane compounds” (Adir et Compagnie, priority 1998, dated 2000).

For one assay, the target named is T1, serotonin reuptake sites (Rattus norvegicus, UniProt P31652).
T1 construct: The membranes are prepared from frontal cortex of rate; from tissue; host or cells: frontal cortex membranes (rat, printed 'rate')
Kind of assay: Determination of the affinity for serotonin reuptake sites ([3H]-paroxetine competition). The class given is binding. Particulars: frontal cortex membranes, 1.0 nM [3H]-paroxetine, 2 hours at 25° C., pH 7.4; read-out: pKi, serotonin reuptake sites (converted). The procedure:
Determination of the affinity for serotonin reuptake sites
The incubation buffer contains […] TRIS-HCl (pH 7.4), 120 mM NaCl and 5 mM KCl. The non-specific binding is determined using 10 μM citalopram. At the end of the incubation, the incubation medium is filtered and washed three times with 5 ml of cooled buffer. The radioactivity retained on the filters is determined by liquid scintillation counting. The binding isotherms are analysed by non-linear regression to determine the IC50 values. Those values are converted into a dissociation constant (Ki) using the Cheng-Prusoff equation: […]
(§1) The results are expressed in pKi (-log Ki).

Assay [1] deals with mouse. Briefly: Suspension-by-the-tail test in the mouse. In kind it is in vivo. Conditions: for Immobility: 6 minutes of the test. An excerpt:
Suspension-by-the-tail test in the mouse
In this variation of the forced swimming test, the state of despair is induced in the mouse by suspending it head down by its tail. Placed in that uncomfortable situation, the animal struggles vigorously to start with and then adopts an immobile posture. Antidepressant products reduce the duration of immobility of the animal.
The animals are male NMRI (IFFA-CREDO) mice (22-26 g) which are housed, in groups of 20, in transparent plastic cages (59×38×20 cm) on sawdust, with food and drink as desired. On the day of the test, each mouse is placed in a separate cage as soon as it has been treated (sub-cutaneously) with the product or the solvent. Thirty minutes later, the animal is suspended by the tail from a hook using an adhesive tape attached to the tail. The hook is connected to a tension sensor which transmits all the animal's movements to a central processor ([…]-TST 1 system, ITEM-LABO, France). The total duration (sec.) of immobility of the animal during the 6 minutes of the test is recorded automatically.
The differences in the duration of immobility between the treated groups (product) and the control group (solvent) are analysed statistically by ANOVA followed by Dunnett's test, wherein p<0.05.

Assay [2] has as its system mouse. Kind of assay: Forced swimming test in the mouse. Particulars: for Duration of immobility: last 4 minutes (T2-T6). The class given is in vivo. The procedure:
Forced swimming test in the mouse (Porsolt et al., 1977)
The forced swimming test in the mouse consists of inducing a state of despair in the animal by placing it for 6 minutes in a cylinder full of water, from which it cannot escape. The naive animal struggles vigorously for the first few minutes and then adopts an immobile posture for the last few minutes of the test. Antidepressant products reduce the duration of immobility of the animal during the test.
the animals are male CD (IFFA-CREDO) mice (22-26 g) which, on the day before the test, are placed individually in transparent plastic cages (25×15×14 cm) on sawdust, with food and drink as desired. On the day of the test, 30 minutes after treatment (product or solvent, administered sub-cutaneously), each mouse is plunged for 6 minutes (T0-T6) in a glass cylinder (23.5 cm in height, 11.5 cm in diameter) filled to a height of 6 centimeters with water maintained at 24±0.5° C. The total duration of immobility (sec.) of the animal during the last 4 minutes of the test (T2-T6) is observed: a mouse is considered to be immobile when it is floating in the water, making only small movements to keep its head out of the water.
The differences between the treated groups (product) and the control group (solvent) are evaluated statistically by variance analysis followed by Dunnett's test wherein p<0.05.

The target in assay [3] is T2, noradrenaline reuptake sites (Rattus norvegicus, UniProt Q63380).
T2 construct: The membranes are prepared from frontal cortex of rat; from tissue; host or cells: rat frontal cortex membranes
T2 sequence (Q63380 1-617): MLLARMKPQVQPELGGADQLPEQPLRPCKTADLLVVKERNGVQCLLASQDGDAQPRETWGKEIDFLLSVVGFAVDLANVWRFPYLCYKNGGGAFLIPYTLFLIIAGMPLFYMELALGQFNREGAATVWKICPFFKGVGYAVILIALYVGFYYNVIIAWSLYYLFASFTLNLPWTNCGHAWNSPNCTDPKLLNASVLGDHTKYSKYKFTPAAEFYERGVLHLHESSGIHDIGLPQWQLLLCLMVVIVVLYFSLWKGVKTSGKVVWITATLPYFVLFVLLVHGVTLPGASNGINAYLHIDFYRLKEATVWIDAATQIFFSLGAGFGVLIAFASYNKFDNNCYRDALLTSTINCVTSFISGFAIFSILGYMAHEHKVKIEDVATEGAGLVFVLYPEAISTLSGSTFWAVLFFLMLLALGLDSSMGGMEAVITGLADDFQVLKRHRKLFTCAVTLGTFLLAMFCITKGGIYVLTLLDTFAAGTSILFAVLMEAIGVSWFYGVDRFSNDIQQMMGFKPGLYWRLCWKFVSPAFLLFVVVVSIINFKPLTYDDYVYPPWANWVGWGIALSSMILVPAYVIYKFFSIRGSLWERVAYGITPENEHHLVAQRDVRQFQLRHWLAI
Kind of assay: Determination of the affinity for noradrenaline reuptake sites ([3H]-nisoxetine competition). In kind it is binding. Conditions: frontal cortex membranes, 2 nM [3H]-nisoxetine, 4 hours at 4° C., pH 7.4; read-out: pKi, noradrenaline reuptake sites (converted). The procedure:
The binding isotherms are analysed by non-linear regression to determine the IC50 values. Those values are converted into a dissociation constant (Ki) using the Cheng-Prusoff equation: […]
as §1

T1 sequence (P31652 whole entry): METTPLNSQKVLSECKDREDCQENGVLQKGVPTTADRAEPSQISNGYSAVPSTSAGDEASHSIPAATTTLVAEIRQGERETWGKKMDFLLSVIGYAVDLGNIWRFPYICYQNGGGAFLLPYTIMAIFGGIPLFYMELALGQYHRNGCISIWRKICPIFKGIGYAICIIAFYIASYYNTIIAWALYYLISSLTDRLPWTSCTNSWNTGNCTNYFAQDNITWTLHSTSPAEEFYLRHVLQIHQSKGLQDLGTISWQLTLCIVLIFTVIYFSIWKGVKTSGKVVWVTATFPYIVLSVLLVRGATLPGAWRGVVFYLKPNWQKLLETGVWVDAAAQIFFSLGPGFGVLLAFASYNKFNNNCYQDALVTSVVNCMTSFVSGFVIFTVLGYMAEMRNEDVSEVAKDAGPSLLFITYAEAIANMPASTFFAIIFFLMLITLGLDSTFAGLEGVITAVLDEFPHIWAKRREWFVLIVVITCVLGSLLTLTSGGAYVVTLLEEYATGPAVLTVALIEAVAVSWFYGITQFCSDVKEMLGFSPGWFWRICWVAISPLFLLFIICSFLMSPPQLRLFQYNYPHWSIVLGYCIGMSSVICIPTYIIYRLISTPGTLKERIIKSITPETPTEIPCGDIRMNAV

Consider `COc1ccc2c(c1)C(CN(C)C)(C1(O)CCCCC1)C2` (single isomer, unassigned; (-)) [Example 8, (-)-Isomer of 1-(N,N-dimethylaminomethyl)-1-(1-hydroxycyclohex-1-yl)-5-methoxybenzocyclobutane], for which the Ki at serotonin reuptake sites was 2 nM.

Regarding `COc1ccc2c(c1)C(CN(C)C)(C1(O)CCCCC1)C2` (stereo not drawn) [Example 3, 1-(N,N-Dimethylaminomethyl)-1-(1-hydroxycyclohex-1-yl)-5-methoxybenzocyclobutane], the “Immobility, %/control” value is 88% in the assay on mouse [1] (0.63 mg/kg s.c.), 51% in the assay with mouse [1] (2.5 mg/kg s.c.) and 35% in the assay with mouse [1] (10.0 mg/kg s.c.). In addition, the Immobility in the assay on mouse [1] (0.63 mg/kg s.c.) was found to be 70.4 ± 13.5 s; in the assay on mouse [1] (2.5 mg/kg s.c.), 41.1 ± 9.6 s; with mouse [1] (10.0 mg/kg s.c., * p < 0.05), 27.8 ± 9.6 s.

For `COc1ccc2c(c1)CC2(CN(C)C)C1(O)CCCCC1` (stereo not drawn) [Example 4, 1-(N,N-Dimethylaminomethyl)-1-(1-hydroxycyclohex-1-yl)-4-methoxybenzocyclobutane], the “Duration of immobility, %/control” value is given as 94% with mouse [2] (0.63 mg/kg s.c.), 61% in the assay on mouse [2] (2.5 mg/kg s.c.) and 4% in the assay on mouse [2] (10.0 mg/kg s.c.). The Duration of immobility in the assay with mouse [2] (0.63 mg/kg s.c.) came to 157.3 ± 18.9 s; with mouse [2] (2.5 mg/kg s.c.) it was 101.6 ± 57.3 s; in the assay with mouse [2] (10.0 mg/kg s.c., * p < 0.05), 6.1 ± 6.1 s.

With `COc1cccc2c1C(CN(C)C)(C1(O)CCCCC1)C2` (stereo not drawn) [Example 9, 1-(N,N-Dimethylaminomethyl)-1-(1-hydroxycyclohex-1-yl)-6-methoxybenzocyclobutane], the Ki in assay [3] is 56.2 nM.

Consider `CNCCC(Oc1ccc(C(F)(F)F)cc1)c1ccccc1` (stereo not drawn) [fluoxetine, reference compound], for which the “Duration of immobility, %/control” value in the assay on mouse [2] (2.5 mg/kg s.c.) is reported as 94%; in the assay on mouse [2] (10.0 mg/kg s.c.), 75%; in the assay with mouse [2] (40.0 mg/kg s.c.), 73%. The “Immobility, %/control” value in the assay on mouse [1] (40.0 mg/kg s.c.) was found to be 91%; with mouse [1] (80.0 mg/kg s.c.), 110%. The figures for the Immobility in the assay on mouse [1] (40.0 mg/kg s.c.) and in the assay with mouse [1] (80.0 mg/kg s.c.) were 69.9 ± 17.8 s and 84.3 ± 12.4 s, respectively.
